Article PMC3199943, “Screening the MayBridge Rule of 3 Fragment Library for Compounds That Interact with the Trypanosoma brucei myo-Inositol-3-Phosphate Synthase and/or Show Trypanocidal Activity” (Molecular Biology International, 2011)
Counter-ions that a name gives are not always drawn. Like-named read-outs stand apart in the source and are kept apart here.

Assays:
HeLa cells = experiment: cells; settings: for CC50 / viability at 500 µM: Homo sapiens, HeLa; for CC50: read-out: HeLa ED50; for viability at 500 µM: 65 h
Description: (§1) Cytotoxic effects against HeLa and A549 cells were determined in a similar manner. Briefly, the cells were cultured in DMEM supplemented with 10% FCS and 2 mM L-Glutamine. Cells were plated at initial cell concentration of 2 × 10^4 cells/well and incubated with the compounds for ~65 hours prior to addition of Alamar Blue solution for a further 5 hours.

A549 cells = experiment: Cytotoxicity against A549 cells, Alamar Blue; type: cell-based; settings: Supplementary Table 1, compound 0.5 mM, percentage of controls (n=1); for viability at 500 µM: Homo sapiens, A549, 65 h
Description: as §1

[1] = read-out: HeLa Cells Alamar Blue
[2] = read-out: HeLa Cells Alamar Blue, Supplementary Table 1, compound 0.5 mM, percentage of controls, mean ± SD (n=3) or SE (n=2)

Row | SMILES | viability at 500 µM (HeLa cells; [1]) | viability at 500 µM (A549 cells) | further results
1 | Nc1ccccc1N [269a, benzene-1,2-diamine] |  |  | CC50 (HeLa cells): 32.9 ± 2.5 µM
2 | Nc1ccc(Cl)c(F)c1 [269b] |  |  | CC50 (HeLa cells): 1400 ± 100 µM
3 | Nc1ccc(Cl)cc1N [269c] |  |  | CC50 (HeLa cells): 224 ± 35 µM
4 | Fc1cc2nc[nH]c2cc1Cl [269d] |  |  | CC50 (HeLa cells): 520 ± 52 µM
5 | Nc1ccccc1O [269e, 2-amino-phenol] |  |  | CC50 (HeLa cells): 68.2 ± 3.2 µM
6 | Nc1ccncc1 [compound 2, pyridin‐4‐amine] | 103 ± 2.2% | 106% | 
7 | N#CN1CCCC1 [compound 3, pyrrolidine‐1‐carbonitrile] | 88.5 ± 1.3% | 115% | 
8 | Cc1cc(C)on1 [compound 4, 3,5‐dimethylisoxazole] | 108 ± 5.3% | 123% | 
9 | Cc1cc(N)on1 [compound 10, 3‐methylisoxazol‐5‐amine] | 66 ± 4.6% | 87.2% | 
10 | Cc1cc(C)n(C)n1 [compound 24, 1,3,5‐trimethyl‐1H‐pyrazole] | 99.7 ± 11.5% | 88.5% | 
11 | CCc1nc(C)c[nH]1 [compound 25, 2‐ethyl‐4‐methyl‐1H‐imidazole] | 98 ± 7.8% | 83.9% | 
12 | Cc1noc(N)c1C [compound 32, 3,4‐dimethylisoxazol‐5‐amine] | 76.4 ± 5.7% | 71.7% | 
13 | Cc1cc(CN)no1 [compound 33, (5‐methyl‐3‐isoxazolyl)methylamine] | 64.3 ± 18.4% | 75.6% | 
14 | Cn1ccnc1CO [compound 34, (1‐methyl‐1H‐imidazol‐2‐yl)methanol] | 97 ± 14% | 72.1% | 
15 | OCC1CCNCC1 [compound 40, 4‐piperidylmethanol] | 84.3 ± 9% | 104% | 
16 | OCC1CCOCC1 [compound 43, tetrahydro‐2H‐pyran‐4‐ylmethanol] | 91.9 ± 5.9% | 79.2% | 
17 | COC(=O)C1NCCS1 (centres unmarked) [compound 44, methyl 1,3-thiazolane-2-carboxylate hydrochloride] |  | 87% | 
18 | OC1CCSCC1 [compound 47, tetrahydro‐2H‐thiopyran‐4‐ol] | 95 ± 10% | 74.9% | 
19 | Clc1ccsc1 [compound 48, 3‐chlorothiophene] | 95.5 ± 2% | 101% | 
20 | c1ccc2c(c1)CCO2 [compound 49, 2,3‐dihydrobenzo[b]furan] | 102 ± 8.6% | 87.3% | 
21 | N#CCCn1cccc1 [compound 50, 3‐(1H‐pyrrol‐1‐yl)propanenitrile] | 75.4 ± 6.4% | 140% | 
22 | Cc1cccc(N)c1N [compound 55, 3‐methylbenzene‐1,2‐diamine] | 11.2 ± 7.2% | 26.5% | 

Row | SMILES | viability at 500 µM (HeLa cells; [1]) | viability at 500 µM (A549 cells) | further results
23 | CNCc1cccnc1 [compound 57, N‐methyl‐N‐(3‐pyridylmethyl)amine] | 89.3 ± 9.6% | 79% | 
24 | O=C(O)c1ccccn1 [compound 58, 2‐pyridinecarboxylic acid] | 87.3 ± 6.1% | 97.9% | 
25 | O=C(O)c1ccncc1 [compound 60, isonicotinic acid] | 98.3 ± 12.5% | 118% | 
26 | Cc1cccc(CO)n1 [compound 62, (6‐methylpyridin‐2‐yl)methanol] | 98.6 ± 7.3% | 67.5% | 
27 | OCCc1cccnc1 [compound 63, 2‐(3‐pyridyl)ethan‐1‐ol] | 105 ± 13.1% | 76.9% | 
28 | N#Cc1ccsc1N [compound 68, 2‐aminothiophene‐3‐carbonitrile] | 102 ± 3.1% | 136% | 
29 | Cn1cccc1C(=O)O [compound 69, 1‐methyl‐1H‐pyrrole‐2‐carboxylic acid] | 95.3 ± 2.5% | 70.2% | 
30 | NCc1cccc(F)c1 [compound 70, 3‐fluorobenzylamine] | 104 ± 17.4% | 104% | 
31 | NCc1ccc(F)cc1 [compound 71, 4‐fluorobenzylamine] | 93.3 ± 10.3% | 110% | 
32 | Cc1cc(CN)n(C)n1 [compound 73, (1,3‐dimethyl‐1H‐pyrazol‐5‐yl)methylamine] |  |  | HeLa Cells Alamar Blue (HeLa cells; Supplementary Table 1, compound 0.5 mM, percentage of controls, mean ± SD (n=3) or SE (n=2)): 91.3 ± 0.6 percentage of controls; A549 Cells Alamar Blue (A549 cells): 107.6 percentage of controls
33 | CC(=O)c1nccs1 [compound 79, 1‐(1,3‐thiazol‐2‐yl)ethan‐1‐one] | 103 ± 16.6% | 94.5% | 
34 | NC(=O)c1cccs1 [compound 80, thiophene‐2‐carboxamide] | 106 ± 17.5% | 90.3% | 
35 | O=C(O)c1cccs1 [compound 85, thiophene‐2‐carboxylic acid] | 100 ± 7.4% | 119% | 
36 | O=C(O)C1CCCNC1 (centres unmarked) [compound 91, 3-piperidinecarboxylic acid] |  | 103% | viability at 500 µM (HeLa cells; read-out: HeLa Cells Alamar Blue (% survival), compound 0.5 mM, percentage of controls): 76.6 ± 29.1%; viability at 500 µM (HeLa cells; [2]): 76.6 ± 29.1%
37 | O=C(O)C1CCOCC1 [compound 92, tetrahydro‐2H‐pyran‐4‐carboxylic acid] | 78.4 ± 15.8% | 118% | 
38 | Cc1cccc2cc[nH]c12 [compound 95, 7‐methyl‐1H‐indole] | 11.9 ± 8.8% | 13.4% | 
39 | Nc1ccc2[nH]ncc2c1 [compound 101, 1H‐indazol‐5‐amine] | 31.7 ± 16.2% | 70.6% | 
40 | FC(F)(F)c1cc[nH]n1 [compound 114, 3‐(trifluoromethyl)‐1H‐pyrazole] | 85.9 ± 6.1% | 73.8% | 
41 | Cc1ccc(CO)cc1C [compound 119, (3,4‐dimethylphenyl)methanol] | 84.7 ± 15.3% | 124% | 
42 | NCCOc1ccccc1 [compound 122, 2‐phenoxyethylamine] | 73.6 ± 5.4% | 100% | 
43 | CC(=O)c1cccc(F)c1 [compound 125, 1‐(3‐fluorophenyl)ethan‐1‐one] | 83 ± 14.8% | 101% | 
44 | Cc1nc(CCN)cs1 [compound 141, 2‐(2‐methyl‐1,3‐thiazol‐4‐yl)ethylamine] | 98.9 ± 7.6% | 105% | 

Row | SMILES | viability at 500 µM (HeLa cells; [1]) | viability at 500 µM (A549 cells) | further results
45 | c1ccc(-c2c[nH]cn2)cc1 [compound 149, 4‐phenyl‐1H‐imidazole] | 80.2 ± 11.7% | 99.1% | 
46 | c1ccc(-c2cc[nH]n2)cc1 [compound 150, 3‐phenyl‐1H‐pyrazole] | 74.6 ± 17.7% | 82% | 
47 | CN1CCN(C)C(CO)C1 (centres unmarked) [compound 154, (1,4‐dimethyl‐2‐piperazinyl)methanol] | 96.9 ± 6.4% | 117% | 
48 | Cn1ccc2cc(N)ccc21 [compound 158, 1‐methyl‐1H‐indol‐5‐amine] | 12.5 ± 9.1% | 59.3% | 
49 | COc1ccc(CC#N)cc1 [compound 161, 2‐(4‐methoxyphenyl)acetonitrile] |  | 88.7% | viability at 500 µM (HeLa cells; [2]): 108 ± 3.1%
50 | NCc1ccc2occc2c1 [compound 165, 1‐benzofuran‐5‐ylmethylamine] | 92.6 ± 8.6% | 90.7% | 
51 | OCc1cc2ccccc2o1 [compound 167, 1‐benzofuran‐2‐ylmethanol] | 84.9 ± 19.3% | 78.2% | 
52 | Cc1ccc(O)c2c1CCC2 [compound 173, 7‐methylindan‐4‐ol] | 43.2 ± 15.6% | 53.7% | 
53 | Cc1ccc(C(N)=O)cc1C [compound 177, 3,4‐dimethylbenzamide] | 81.7 ± 16.8% | 64.2% | 
54 | CC(C)(C)c1ccc(N)cc1 [compound 178, 4‐(tert‐butyl)aniline] | 109 ± 18.8% | 87.6% | 
55 | CC(C)(C)c1cccc(N)c1 [compound 179, 3‐(tert‐butyl)aniline] | 99.3 ± 14.7% | 77.9% | 
56 | OCC1Cc2ccccc2O1 (centres unmarked) [compound 187, 2,3‐dihydro‐1‐benzofuran‐2‐ylmethanol] | 94.3 ± 13.3% | 50.5% | 
57 | NC(=O)Cc1ccc(O)cc1 [compound 192, 2‐(4‐hydroxyphenyl)acetamide] | 96.9 ± 9.5% | 44.6% | 
58 | CNCc1ccc(OC)cc1 [compound 199, N‐(4‐methoxybenzyl)‐N‐methylamine] | 95.1 ± 15.3% | 71% | 
59 | OCc1ccc2c(c1)OCO2 [compound 200, 1,3‐benzodioxol‐5‐ylmethanol] | 85.2 ± 9.3% | 92.1% | 
60 | O=C1CCC2CC1CCC2=O [compound 206, bicyclo[3.3.1]nonane‐2,6‐dione] | 80.8 ± 7.6% | 42.1% | 
61 | N#CC1(O)CN2CCC1CC2 (centres unmarked) [compound 208, 3‐hydroxyquinuclidine‐3‐carbonitrile] | 99.4 ± 11.2% | 61.8% | 
62 | OC12CC3CC(CC(C3)C1)C2 [compound 209, adamantan‐1‐ol] | 92.2 ± 6.7% | 76.1% | 
63 | CC(=O)Nc1ccccc1F [compound 212, N1‐(2‐fluorophenyl)acetamide] | 80.6 ± 6.6% | 65.4% | 
64 | COc1ccc(N)c(OC)c1 [compound 213, 2,4‐dimethoxyaniline] | 14 ± 8.2% | 61.2% | CC50 (HeLa cells): 710 ± 96 µM
65 | CSc1ccccc1CN [compound 217, 2‐(methylthio)benzylamine] | 27.1 ± 0.5% | 70.3% | 
66 | O=C(O)Cc1ccc(F)cc1 [compound 219, 2‐(4‐fluorophenyl)acetic acid] | 94.3 ± 13.4% | 98.4% | 
